Results: US8247211B2, “Glycopeptide antibiotics” (American Cyanamid Company, priority 2001, dated 2012)
Values after ≈ are worked out from the molar mass of the structure shown.

Experiments:
Assay in all cases: In vitro antibacterial evaluation: minimum inhibitory concentration (MIC), broth dilution method
Assay type in all cases: cell-based
Enterococcus sp. = test system: Enterococcus sp.
How it was run: (§1)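 Values are minimum inhibitory concentrations, meaning the smallest antibiotic concentration that stops growth of the organism. They come from broth dilution in Muller-Hinton II […] per NCCLS guidance (M7-A2), using 5×10^5 CFU/mL and concentrations from 64 to 0.06 μg/mL.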

Escherichia coli = test system: Escherichia coli
How it was run: as §1

Streptococcus sp. = test system: Streptococcus sp.
How it was run: as §1

Staphylococcus sp. = settings: broth dilution, 18 hours at 35° C.
How it was run: as §1

Compound: CC(c1ccccc1)C1NC(=O)CNC(=O)C(CO)NC(=O)C(C(O)C2CNC(=N)N2C2OC(CO)C(O)C(O)C2O)NC(=O)C(C(O)C2CNC(=NC(=O)C(C)(C)C)N2)NC(=O)C(Cc2ccc(OC3OC(CO)C(OC4OC(CO)C(O)C(O)C4O)C(O)C3O)cc2)NC1=O (stereo not drawn) [Example 155, Cyclo[glycyl-β-methylphenylalanyl-O-(4-O-hexopyranosylhexopyranosyl)tyrosyl-3-[2-[(2,2-dimethylpropanoyl)imino]imidazolidin-4-yl]seryl-3-(3-hexopyranosyl-2-iminoimidazolidin-4-yl)serylseryl]]
- MIC Enterococcus avium (GC 4558) (Enterococcus sp.; Enterococcus avium (GC 4558), broth dilution, 18 hours at 35° C.): 0.5 to 1 µg/mL
- MIC Enterococcus faecalis (ATCC 29212) (Enterococcus sp.; Enterococcus faecalis (ATCC 29212), broth dilution, 18 hours at 35° C.): 0.5 to 1 µg/mL
- MIC Enterococcus faecalis (GC 4554) (Enterococcus sp.; Enterococcus faecalis (GC 4554), broth dilution, 18 hours at 35° C.): 0.5 to 1 µg/mL
- MIC Enterococcus faecalis (GC 6189) (Enterococcus sp.; Enterococcus faecalis (GC 6189), broth dilution, 18 hours at 35° C.): 0.5 µg/mL (≈ 0.362 µM)
- MIC Enterococcus faecium (GC 2243) (Enterococcus sp.; Enterococcus faecium (GC 2243), broth dilution, 18 hours at 35° C.): <0.5 to 1 µg/mL
- MIC Enterococcus faecium (GC 4556) (Enterococcus sp.; Enterococcus faecium (GC 4556), broth dilution, 18 hours at 35° C.): 1 to 2 µg/mL
- MIC Enterococcus faecium (GC 4557) (Enterococcus sp.; Enterococcus faecium (GC 4557), broth dilution, 18 hours at 35° C.): 1 to 2 µg/mL
- MIC Enterococcus faecalis (ATCC 29212) (Enterococcus sp.; strain ATCC 29212): 0.5 to 1 µg/mL
- MIC Enterococcus faecalis (GC 2242) (Enterococcus sp.; strain GC 2242): 0.5 to 1 µg/mL
- MIC Enterococcus faecium (GC 2243) (Enterococcus sp.; strain GC 2243): <0.5 to 1 µg/mL
- MIC Enterococcus faecalis (GC 2691) (Enterococcus sp.; strain GC 2691): 0.5 µg/mL (≈ 0.362 µM)
- MIC Enterococcus faecalis (GC 3059) (Enterococcus sp.; strain GC 3059): 0.5 µg/mL (≈ 0.362 µM)
- MIC Enterococcus faecalis (GC 4554) (Enterococcus sp.; strain GC 4554): 0.5 to 1 µg/mL
- MIC Enterococcus faecium (GC 4556) (Enterococcus sp.; strain GC 4556): 1 to 2 µg/mL
- MIC Enterococcus faecium (GC 4557) (Enterococcus sp.; strain GC 4557): 1 to 2 µg/mL
- MIC Enterococcus avium (GC 4558) (Enterococcus sp.; strain GC 4558): 0.5 to 1 µg/mL
- MIC Enterococcus faecalis (GC 6189) (Enterococcus sp.; strain GC 6189): 0.5 µg/mL (≈ 0.362 µM)
- MIC Escherichia coli (ATCC 25922) (Escherichia coli; strain ATCC 25922): >64 µg/mL
- MIC Escherichia coli (GC 4559) (Escherichia coli; strain GC 4559): >64 µg/mL
- MIC Escherichi coli (GC 4560) (Escherichia coli; strain GC 4560): 0.5 to 2 µg/mL
- MIC Streptococcus pneumoniae (ATCC 6301) (Streptococcus sp.; strain ATCC 6301): 0.12 µg/mL (≈ 0.087 µM)
- MIC Streptococcus pneumoniae (GC 1894) (Streptococcus sp.; strain GC 1894): 0.12 µg/mL (≈ 0.087 µM)
- MIC Streptococcus pyogenes (GC 4563) (Streptococcus sp.; strain GC 4563): >0.12 µg/mL
- MIC Streptococcus agalactiae (GC 4564) (Streptococcus sp.; strain GC 4564): <0.12 µg/mL
- MIC Streptococcus pyogenes (ID-3187) (Streptococcus sp.; strain ID-3187): <0.5 µg/mL
- MIC Coagulase Negative Staphylococcus (GC 4547) (Staphylococcus sp.; 5×10^5 CFU/mL): <0.5 to 2 µg/mL
- MIC Coagulase Negative Staphylococcus (GC 4548) (Staphylococcus sp.; 5×10^5 CFU/mL): <0.5 to 1 µg/mL
- MIC Coagulase Negative Staphylococcus (GC 4549) (Staphylococcus sp.; 5×10^5 CFU/mL): <0.5 to 1 µg/mL
- MIC Coagulase Negative Staphylococcus (GC 4551) (Staphylococcus sp.; 5×10^5 CFU/mL): <0.5 to 1 µg/mL
- MIC Coagulase Negative Staphylococcus (GC 6257) (Staphylococcus sp.; 5×10^5 CFU/mL): 1 µg/mL (≈ 0.725 µM)
- MIC Coagulase Negative Staphylococcus (ID-3941) (Staphylococcus sp.; 5×10^5 CFU/mL): <0.5 µg/mL
- MIC Staphylococcus aureus (GC 3051) (Staphylococcus sp.; 5×10^5 CFU/mL): 0.5 µg/mL (≈ 0.362 µM)
- MIC Staphylococcus aureus (GC 3053) (Staphylococcus sp.; 5×10^5 CFU/mL): 0.5 µg/mL (≈ 0.362 µM)
- MIC Staphylococcus aureus (GC 4545) (Staphylococcus sp.; 5×10^5 CFU/mL): 0.5 to 1 µg/mL
- MIC Staphylococcus haemolyticus (GC 4546) (Staphylococcus sp.; 5×10^5 CFU/mL): <0.5 to 1 µg/mL
- MIC Staphylococcus aureus (GC 3051) (Staphylococcus sp.; strain GC 3051): 0.5 µg/mL (≈ 0.362 µM)
- MIC Staphylococcus aureus (GC 3053) (Staphylococcus sp.; strain GC 3053): 0.5 µg/mL (≈ 0.362 µM)
- MIC Staphylococcus aureus (GC 4545) (Staphylococcus sp.; strain GC 4545): 0.5 to 1 µg/mL
- MIC Staphylococcus haemolyticus (GC 4546) (Staphylococcus sp.; strain GC 4546): <0.5 to 1 µg/mL
- MIC Coagulase Negative Staphylococcus (GC 4547) (Staphylococcus sp.; strain GC 4547): <0.5 to 2 µg/mL
- MIC Coagulase Negative Staphylococcus (GC 4548) (Staphylococcus sp.; strain GC 4548): <0.5 to 1 µg/mL
- MIC Coagulase Negative Staphylococcus (GC 4549) (Staphylococcus sp.; strain GC 4549): <0.5 to 1 µg/mL
- MIC Coagulase Negative Staphylococcus (GC 4551) (Staphylococcus sp.; strain GC 4551): <0.5 to 1 µg/mL
- MIC Coagulase Negative Staphylococcus (GC 6257) (Staphylococcus sp.; strain GC 6257): 1 µg/mL (≈ 0.725 µM)
- MIC Coagulase Negative Staphylococcus (ID-3941) (Staphylococcus sp.; strain ID-3941): <0.5 µg/mL
